From the supplement of paper PMC11208160 come the findings set out here.
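Further: IS621 recombinase and bridge RNA in Escherichia coli cells.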

The series in a line: recombinant barcode read abundance after kanamycin selection (control-corrected) (log10(CPM+1)); higher = more efficient recombination; sequences stand for … in AGTGCAGAGAAAATCGGCCAGTTTTCTCTGCCTGCAGTCCGCATGCCGT…AGATTTATGCAGCGGACTGCCTTTCTCCCAAAGTGATAAACCGGACAGTATCATGGACCGGTTTTCCCGGTAATCCGTATTTGCAAGGTTGGTTTCACT; site = the 11-nt target. In outline:
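Pooled E. coli screen pairing targets with IS621 bridge RNA target-binding loops. Each oligo (promoter, target, barcode, J23119-driven first 104 bridge RNA bases) was Gibson-cloned into a vector with the remaining 73 bp and T7-inducible recombinase, then co-electroporated with a donor plasmid. Two replicates each were plated on chloramphenicol/ampicillin LB agar (control) or chloramphenicol/ampicillin/kanamycin with 0.1 mM IPTG. Recombination efficiency is recombinant-junction barcode counts as CPM, averaged, control-corrected, reported as log10(CPM+1).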
“TTAACTACTTGGGTTCTAACCTGTTGCTC (site TTAACTACTCA)”: the “recombinant barcode read abundance (log10)” value turned out to be 0.126.
On to “TTAACTACTTGGGTTCTAACCTGTTGCTC (site TTAACTACTGA)”, for which the “recombinant barcode read abundance (log10)” value turned out to be 0.195.
In the case of “TTAACTACTTGGGTTCTAACCTGTTGCTC (site TTAACTACTTA)”, the “recombinant barcode read abundance (log10)” value was determined as 0.
Regarding “TTAAGACCTTGGGTTCTAACCTGTTGCCT (site TTAAGACCTAG)”, the “recombinant barcode read abundance (log10)” value was 1.37.
In the case of “TTAAGACCTTGGGTTCTAACCTGTTGCCT (site TTAAGCCCTAG)”, the “recombinant barcode read abundance (log10)” value worked out at 0.336.
Take “TTAAGTCCTTGGGTTCTAACCTGTTGCCT (site TTAAGTCCTAG)”: the “recombinant barcode read abundance (log10)” value was 0.448.
For “TTAAGTCCTTGGGTTCTAACCTGTTGCCT (site TTCAGTCCTAT)”, the “recombinant barcode read abundance (log10)” value was 0.134.
Regarding “TTACAATCTTGGGTTCTAACCTGTTGCCT (site ATACAATCTAG)”, the “recombinant barcode read abundance (log10)” value amounted to 0.31.
In the case of “TTACAATCTTGGGTTCTAACCTGTTGCCT (site CTACAATCTAG)”, the “recombinant barcode read abundance (log10)” value turned out to be 0.337.
Consider “TTACAATCTTGGGTTCTAACCTGTTGCCT (site GTACAATCTAG)”, for which the “recombinant barcode read abundance (log10)” value is 0.0953.
For the sequence “TTACAATCTTGGGTTCTAACCTGTTGCCT (site TTACAATCTAG)”, the “recombinant barcode read abundance (log10)” value was determined as 0.764.
Take “TTACCTACTTGGGTTCTAACCTGTTGCCT (site TTACCAACTAG)”: the “recombinant barcode read abundance (log10)” value was 0.237.
For the sequence “TTACCTACTTGGGTTCTAACCTGTTGCCT (site TTACCCACTAG)”, the “recombinant barcode read abundance (log10)” value was found to be 0.0698.
Turning to “TTACCTACTTGGGTTCTAACCTGTTGCCT (site TTACCGACTAG)”, the “recombinant barcode read abundance (log10)” value is 0.278.
Take “TTACCTACTTGGGTTCTAACCTGTTGCCT (site TTACCTACTAG)”: the “recombinant barcode read abundance (log10)” value stood at 0.802.
Turning to “TTACGAGCTTGGGTTCTAACCTGTTGCCT (site TCACTAGCTAG)”, the “recombinant barcode read abundance (log10)” value amounted to 0.131.
Consider “TTACGAGCTTGGGTTCTAACCTGTTGCCT (site TTACGAGCTAG)”, for which the “recombinant barcode read abundance (log10)” value came to 1.08.
Turning to “TTACGCACTTGGGTTCTAACCTGTTGCCT (site TAACCCACTAG)”, the “recombinant barcode read abundance (log10)” value was found to be 0.264.
On to “TTACGCACTTGGGTTCTAACCTGTTGCCT (site TTACGCACTAG)”, for which the “recombinant barcode read abundance (log10)” value came out at 1.34.
Take “TTACGCGCTTGGGTTCTAACCTGTTGCGG (site TTACGAGCTCC)”: the “recombinant barcode read abundance (log10)” value was 0.258.
Regarding “TTACGCGCTTGGGTTCTAACCTGTTGCGG (site TTACGCGCTCC)”, the “recombinant barcode read abundance (log10)” value came out at 1.67.
Turning to “TTACGCGCTTGGGTTCTAACCTGTTGCGG (site TTACGGGCTCC)”, the “recombinant barcode read abundance (log10)” value worked out at 0.0728.
In the case of “TTACGCGCTTGGGTTCTAACCTGTTGCGG (site TTACGTGCTCC)”, the “recombinant barcode read abundance (log10)” value amounted to 0.0492.
With “TTAGACTCTTGGGTTCTAACCTGTTGCCA (site TTAGACTCTTA)”, the “recombinant barcode read abundance (log10)” value is 0.0659.
For “TTAGACTCTTGGGTTCTAACCTGTTGCCA (site TTAGACTCTTG)”, the “recombinant barcode read abundance (log10)” value turned out to be 1.06.
“TTAGCTTCTTGGGTTCTAACCTGTTGCCT (site TTAGCATCTAG)”: the “recombinant barcode read abundance (log10)” value was determined as 0.078.
Consider “TTAGCTTCTTGGGTTCTAACCTGTTGCCT (site TTAGCCTCTAG)”, for which the “recombinant barcode read abundance (log10)” value was determined as 0.0176.
Turning to “TTAGCTTCTTGGGTTCTAACCTGTTGCCT (site TTAGCGTCTAG)”, the “recombinant barcode read abundance (log10)” value came out at 0.0371.
As to “TTAGCTTCTTGGGTTCTAACCTGTTGCCT (site TTAGCTTCTAG)”, the “recombinant barcode read abundance (log10)” value turned out to be 0.163.
Regarding “TTATACACTTGGGTTCTAACCTGTTGCAG (site CAGCGGTCTTC)”, the “recombinant barcode read abundance (log10)” value worked out at 0.0563.
“TTATACACTTGGGTTCTAACCTGTTGCAG (site TTATACACTCT)”: the “recombinant barcode read abundance (log10)” value came out at 1.98.
With “TTATGAGCTTGGGTTCTAACCTGTTGCCG (site ATATGAGCTTG)”, the “recombinant barcode read abundance (log10)” value is 0.012.
“TTATGAGCTTGGGTTCTAACCTGTTGCCG (site TTATGAGCTCG)”: the “recombinant barcode read abundance (log10)” value is 1.2.
In the case of “TTATGGTCTTGGGTTCTAACCTGTTGCTA (site TCTTGGTCTTA)”, the “recombinant barcode read abundance (log10)” value was 0.257.
Regarding “TTATGGTCTTGGGTTCTAACCTGTTGCTA (site TTATGGTCTTA)”, the “recombinant barcode read abundance (log10)” value came out at 0.705.
For the sequence “TTATTGTCTTGGGTTCTAACCTGTTGCCT (site TTATTGTCTAG)”, the “recombinant barcode read abundance (log10)” value amounted to 1.37.
For the sequence “TTATTGTCTTGGGTTCTAACCTGTTGCCT (site TTCTTGCCTAG)”, the “recombinant barcode read abundance (log10)” value was found to be 0.024.
Take “TTCAAACCTTGGGTTCTAACCTGTTGCCT (site TTCAAAACTAG)”: the “recombinant barcode read abundance (log10)” value was 0.0532.
In the case of “TTCAAACCTTGGGTTCTAACCTGTTGCCT (site TTCAAACCTAG)”, the “recombinant barcode read abundance (log10)” value is 0.612.
On to “TTCAAACCTTGGGTTCTAACCTGTTGCCT (site TTCAAAGCTAG)”, for which the “recombinant barcode read abundance (log10)” value was 0.0476.
In the case of “TTCAAACCTTGGGTTCTAACCTGTTGCCT (site TTCAAATCTAG)”, the “recombinant barcode read abundance (log10)” value turned out to be 0.115.
For the sequence “TTCAAATCTTGGGTTCTAACCTGTTGCCT (site TTCAAAACTAG)”, the “recombinant barcode read abundance (log10)” value is 0.0847.
With “TTCAAATCTTGGGTTCTAACCTGTTGCCT (site TTCAAACCTAG)”, the “recombinant barcode read abundance (log10)” value was determined as 0.242.
With “TTCAAATCTTGGGTTCTAACCTGTTGCCT (site TTCAAAGCTAG)”, the “recombinant barcode read abundance (log10)” value was 0.182.
To “TTCAAATCTTGGGTTCTAACCTGTTGCCT (site TTCAAATCTAG)” belongs 0; to “TTCAAGCCTTGGGTTCTAACCTGTTGCCT (site TTCAAGACTAG)”, 0.0598.
As for “TTCAAGCCTTGGGTTCTAACCTGTTGCCT (site TTCAAGCCTAG)”, the “recombinant barcode read abundance (log10)” value worked out at 0.329.
Then “TTCAAGCCTTGGGTTCTAACCTGTTGCCT (site TTCAAGGCTAG)”, with 0.0261.
“TTCAAGCCTTGGGTTCTAACCTGTTGCCT (site TTCAAGTCTAG)”: the “recombinant barcode read abundance (log10)” value is 0.0767.
For the sequence “TTCACACCTTGGGTTCTAACCTGTTGCCT (site TTCACACCTAG)”, the “recombinant barcode read abundance (log10)” value is 0.385.
As for “TTCACACCTTGGGTTCTAACCTGTTGCCT (site TTCACAGCTAG)”, the “recombinant barcode read abundance (log10)” value was found to be 0.00569.
Then “TTCAGGGCTTGGGTTCTAACCTGTTGCAG (site AGAGCCTCTTA)”, with 0.111; and “TTCAGGGCTTGGGTTCTAACCTGTTGCAG (site TTCAGGGCTCT)”, with 1.99.
With “TTCATACCTTGGGTTCTAACCTGTTGCTT (site GTCTTACCTAA)”, the “recombinant barcode read abundance (log10)” value came to 0.0129.
“TTCATACCTTGGGTTCTAACCTGTTGCTT (site TTCATACCTAA)”: the “recombinant barcode read abundance (log10)” value stood at 0.0848.
Regarding “TTCATGTCTTGGGTTCTAACCTGTTGCTT (site CTCATGTCTAA)”, the “recombinant barcode read abundance (log10)” value worked out at 0.138.
For “TTCATGTCTTGGGTTCTAACCTGTTGCTT (site TTCATGTCTAA)”, the “recombinant barcode read abundance (log10)” value was 0.421.
In the case of “TTCCACACTTGGGTTCTAACCTGTTGCGG (site TTCCAAACTCC)”, the “recombinant barcode read abundance (log10)” value is 0.116.
To “TTCCACACTTGGGTTCTAACCTGTTGCGG (site TTCCACACTCC)” belongs 1.04.
“TTCCGCTCTTGGGTTCTAACCTGTTGCCT (site ATCCGCTCTAG)”: the “recombinant barcode read abundance (log10)” value is 0.112.
With “TTCCGCTCTTGGGTTCTAACCTGTTGCCT (site CTCCGCTCTAG)”, the “recombinant barcode read abundance (log10)” value is 0.121.
Consider “TTCCGCTCTTGGGTTCTAACCTGTTGCCT (site GTCCGCTCTAG)”, for which the “recombinant barcode read abundance (log10)” value turned out to be 0.139.
On to “TTCCGCTCTTGGGTTCTAACCTGTTGCCT (site TTCCGCTCTAG)”, for which the “recombinant barcode read abundance (log10)” value is 1.26.
Regarding “TTCCTAGCTTGGGTTCTAACCTGTTGCCA (site ATCCTAGCTCG)”, the “recombinant barcode read abundance (log10)” value was 0.493.
Then “TTCCTAGCTTGGGTTCTAACCTGTTGCCA (site TTCCTAGCTTG)”, with 0.109; and “TTCCTGACTTGGGTTCTAACCTGTTGCCT (site CTCCTGCCTAG)”, with 0.0475.
“TTCCTGACTTGGGTTCTAACCTGTTGCCT (site TTCCTGACTAG)”: the “recombinant barcode read abundance (log10)” value was determined as 1.69.
For the sequence “TTCGACGCTTGGGTTCTAACCTGTTGCCT (site TTAGACTCTAG)”, the “recombinant barcode read abundance (log10)” value stood at 0.152.
To “TTCGACGCTTGGGTTCTAACCTGTTGCCT (site TTCGACGCTAG)” belongs 1.03.
As for “TTCGACTCTTGGGTTCTAACCTGTTGCTA (site TACGACTCTAA)”, the “recombinant barcode read abundance (log10)” value worked out at 0.137.
On to “TTCGACTCTTGGGTTCTAACCTGTTGCTA (site TTCGACTCTTA)”, for which the “recombinant barcode read abundance (log10)” value was 1.07.
For “TTCGGACCTTGGGTTCTAACCTGTTGCGG (site GGGACCACTTA)”, the “recombinant barcode read abundance (log10)” value was 0.677.
Then “TTCGGACCTTGGGTTCTAACCTGTTGCGG (site TTCGGACCTCC)”, with 2.62.
Consider “TTCTACCCTTGGGTTCTAACCTGTTGCCT (site TACTACCCTAG)”, for which the “recombinant barcode read abundance (log10)” value is 0.0731.
Regarding “TTCTACCCTTGGGTTCTAACCTGTTGCCT (site TCCTACCCTAG)”, the “recombinant barcode read abundance (log10)” value was 0.149.
To “TTCTACCCTTGGGTTCTAACCTGTTGCCT (site TGCTACCCTAG)” belongs 0.0636.
For the sequence “TTCTACCCTTGGGTTCTAACCTGTTGCCT (site TTCTACCCTAG)”, the “recombinant barcode read abundance (log10)” value worked out at 0.449.
